Data published in patent US9249125B2, “Pyrazole derivatives as p38 MAP inhibitors” (RESPIVERT LIMITED, priority 2012, dated 2016).

Legend:
[1] = tested on: LPS-induced IL-8 release in d-U937 cells; experiment: LPS-induced IL-8 release in d-U937 cells; format: cell-based; settings: Homo sapiens, dU937, read-out: LPS Induced Release of Cytokine in d-937 Cells IL-8 IC50
Summary of the method: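 Read-out: TNFα and IL-8 released into supernatant, sandwich ELISA, expressed as inhibition versus vehicle at each dose and fitted to give REC50. Cells were PMA-differentiated U937 (100 ng/mL, 48–72 hr), compound-exposed 2 hr before a 4 hr LPS stimulus (0.1 μg/mL).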

[2] = tested on: Poly I:C-induced ICAM-1 expression in BEAS2B cells; experiment: Poly I:C-induced ICAM-1 expression in BEAS2B cells; format: cell-based; settings: Homo sapiens, BEAS-2B, read-out: Poly IC induced ICAM1 in BEAS2B IC50
Summary of the method: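 Cell-based ELISA read at 450 nm minus 655 nm, divided by crystal violet OD595 to normalize for cell number, gave ICAM-1 levels. Readout was taken 18 hr after poly I:C (1 μg/mL, Oligofectamine) transfection of human bronchial BEAS2B cells pretreated 2 hr with test compound.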

p38 MAPKα = p38 MAPKα (Homo sapiens (Human), UniProt Q16539); experiment: p38 MAPKα enzyme inhibition (FRET, Z-LYTE); format: biochemical
Sequence of p38 MAPKα (Q16539 whole entry): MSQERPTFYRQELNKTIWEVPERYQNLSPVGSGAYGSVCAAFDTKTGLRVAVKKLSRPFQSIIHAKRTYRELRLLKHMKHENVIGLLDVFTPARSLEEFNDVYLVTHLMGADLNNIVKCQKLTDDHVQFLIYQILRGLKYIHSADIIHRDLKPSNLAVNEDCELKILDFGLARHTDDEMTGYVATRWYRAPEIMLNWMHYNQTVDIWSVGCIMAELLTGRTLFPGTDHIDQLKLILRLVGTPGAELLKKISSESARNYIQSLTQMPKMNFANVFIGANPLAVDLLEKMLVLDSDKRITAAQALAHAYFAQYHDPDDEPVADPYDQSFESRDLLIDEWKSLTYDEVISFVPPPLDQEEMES

Syk = Syk (Homo sapiens (Human), UniProt P43405); experiment: Syk enzyme inhibition (FRET, Z-LYTE); format: biochemical
Summary of the method: (§1)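 Z-LYTE FRET kinase assay: enzyme (3000 or 2000 ng/mL stock, respectively) preincubated 2 h at RT with compound (4–0.004 μg/mL stocks), then FRET peptide plus ATP (800 μM stock for c-Src, 60 μM for Syk) added for 1 h. Protease development 1 h; phosphorylation from coumarin/fluorescein emission ratio.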

cSrc = cSrc (Homo sapiens (Human), UniProt P12931); experiment: c-Src enzyme inhibition (FRET, Z-LYTE); format: biochemical
Sequence of cSrc (P12931 whole entry, looked up): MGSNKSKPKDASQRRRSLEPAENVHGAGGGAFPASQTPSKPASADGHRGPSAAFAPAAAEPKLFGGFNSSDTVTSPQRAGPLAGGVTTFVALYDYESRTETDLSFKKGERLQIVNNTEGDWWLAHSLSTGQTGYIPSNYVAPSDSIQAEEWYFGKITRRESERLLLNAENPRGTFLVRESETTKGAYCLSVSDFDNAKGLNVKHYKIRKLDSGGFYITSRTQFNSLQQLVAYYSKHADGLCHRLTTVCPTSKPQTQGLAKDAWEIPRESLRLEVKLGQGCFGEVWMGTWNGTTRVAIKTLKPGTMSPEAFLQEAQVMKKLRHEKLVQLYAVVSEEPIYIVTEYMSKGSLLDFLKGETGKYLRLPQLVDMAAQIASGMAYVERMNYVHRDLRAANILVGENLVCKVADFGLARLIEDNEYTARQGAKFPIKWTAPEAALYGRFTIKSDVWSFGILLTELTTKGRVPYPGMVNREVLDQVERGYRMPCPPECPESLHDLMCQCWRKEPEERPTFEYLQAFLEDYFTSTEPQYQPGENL
Summary of the method: as §1

d-U937 cells = experiment: Cell viability: MTT assay; format: cell-based, human; settings: 1 μg/mL
Summary of the method: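 MTT read-out (1 h, absorbance 550 nm) on d-U937 cells after pre-incubation with 1 or 10 μg/mL compound under two regimes: 4 h, 5% FCS, or 24 h, 10% FCS RPMI1640. Values are percent loss of viability relative to vehicle (0.5% DMSO), so increases are reported as negative.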

GSK3α = GSK3α (Homo sapiens (Human), UniProt P49840); experiment: GSK 3α enzyme inhibition (FRET, Z-LYTE); format: biochemical
Sequence of GSK3α (P49840 whole entry): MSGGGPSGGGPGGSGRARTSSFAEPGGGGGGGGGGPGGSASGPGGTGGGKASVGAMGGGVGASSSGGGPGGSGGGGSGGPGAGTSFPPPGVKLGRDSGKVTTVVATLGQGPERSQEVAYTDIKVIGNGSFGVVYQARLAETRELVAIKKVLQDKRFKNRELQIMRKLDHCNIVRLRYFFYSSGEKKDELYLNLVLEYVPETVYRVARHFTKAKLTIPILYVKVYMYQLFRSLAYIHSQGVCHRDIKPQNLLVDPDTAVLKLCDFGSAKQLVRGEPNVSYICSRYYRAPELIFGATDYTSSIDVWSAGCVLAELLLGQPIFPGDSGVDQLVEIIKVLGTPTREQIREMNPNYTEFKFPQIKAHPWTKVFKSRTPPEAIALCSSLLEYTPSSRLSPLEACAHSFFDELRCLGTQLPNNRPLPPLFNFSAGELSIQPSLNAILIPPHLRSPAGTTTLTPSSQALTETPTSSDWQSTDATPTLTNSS
Summary of the method: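 Phosphorylation was read as the donor (coumarin) to acceptor (fluorescein) ratio after a 1 hr protease step destroying non-phosphorylated peptide. Before this, compound (4–0.004 μg/mL stocks) sat 2 hr at RT with GSK3α (500 ng/mL stock), followed by 1 hr kinase reaction with 8 μM peptide and 40 μM ATP stocks.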

Row | SMILES | IC50 [1] [nM] | IC50 [2] [nM] | IC50 (p38 MAPKα) [nM] | IC50 (Syk) [nM] | IC50 (cSrc) [nM] | MTT Assay Cell viability at time point in d-U937 cells 4 h (d-U937 cells) | MTT Assay Cell viability at time point in d-U937 cells 24 h (d-U937 cells) | IC50 (GSK3α) [nM]
1 | Cc1ccc(-n2nc(C(C)(C)C)cc2NC(=O)Nc2ccc(Oc3ccnc(Nc4ccc5c(c4)ncn5C)n3)c3ccccc23)cc1 [Example 4, 1-(3-(tert-Butyl)-1-(p-tolyl)-1H-pyrazol-5-yl)-3-(4-((2-((1-methyl-1H-benzo[d]imidazol-5-yl)amino)pyrimidin-4-yl)oxy)naphthalen-1-yl)urea] | 2 | 2.4 | 19 | 14 | 4 | −ve (−ve and +ve indicate that the value is below and above respectively, the no significant effect threshold, defined as 30% inhibition at 1 μg/mL at the time point indicated.) | −ve (−ve and +ve indicate that the value is below and above respectively, the no significant effect threshold, defined as 30% inhibition at 1 μg/mL at the time point indicated.) | 1370
2 | CC(C)(C)c1cc(NC(=O)Nc2ccc(Oc3ccnc(Nc4ccc5[nH]ncc5c4)n3)c3ccccc23)n(-c2ccc(OCCN3CCOCC3)cc2)n1 [Example 12, 1-(4-((2-((1H-Indazol-5-yl)amino)pyrimidin-4-yl)oxy)naphthalen-1-yl)-3-(3-(tert-butyl)-1-(4-(2-morpholinoethoxy)phenyl)-1H-pyrazol-5-yl)urea] | 2 | 21.6 | 77 | 22 | 13 | −ve (−ve and +ve indicate that the value is below and above respectively, the no significant effect threshold, defined as 30% inhibition at 1 μg/mL at the time point indicated.) | −ve (−ve and +ve indicate that the value is below and above respectively, the no significant effect threshold, defined as 30% inhibition at 1 μg/mL at the time point indicated.) | 3890
3 | Cc1ccc(-n2nc(C(C)(C)C)cc2NC(=O)Nc2ccc(Oc3ccnc(Nc4cccc5cc[nH]c45)n3)c3ccccc23)cc1 [Example 17] | 7.4 | 8.4 | 376 | 280 | 138 | −ve (−ve and +ve indicate that the value is below and above respectively, the no significant effect threshold, defined as 30% inhibition at 1 μg/mL at the time point indicated.) | −ve (−ve and +ve indicate that the value is below and above respectively, the no significant effect threshold, defined as 30% inhibition at 1 μg/mL at the time point indicated.) | > 16100
4 | Cc1ccc(-n2nc(C(C)(C)C)cc2NC(=O)Nc2ccc(Oc3ccnc(Nc4ccc5c(ccn5C)c4)n3)c3ccccc23)cc1 [Example 18, 1-(3-(tert-butyl)-1-(p-tolyl)-1H-pyrazol-5-yl)-3-(4-((2-((1-methyl-1H-indol-5-yl)amino)pyrimidin-4-yl)oxy)naphthalen-1-yl)urea] | 5.7 | 1.9 | 1360 | 92 | 155 | −ve (−ve and +ve indicate that the value is below and above respectively, the no significant effect threshold, defined as 30% inhibition at 1 μg/mL at the time point indicated.) | −ve (−ve and +ve indicate that the value is below and above respectively, the no significant effect threshold, defined as 30% inhibition at 1 μg/mL at the time point indicated.) | 7080
5 | Cc1ccc(-n2nc(C(C)(C)C)cc2NC(=O)Nc2ccc(Oc3ccnc(Nc4ccc5[nH]ncc5c4)n3)c3ccccc23)cc1 [Example 22, 1-(4-((2-((1H-indazol-5-yl)amino)pyrimidin-4-yl)oxy)naphthalen-1-yl)-3-(3-(tert-butyl)-1-(p-tolyl)-1H-pyrazol-5-yl)urea] | 1.5 | 2.5 | 56 | 26 | 19 | −ve (−ve and +ve indicate that the value is below and above respectively, the no significant effect threshold, defined as 30% inhibition at 1 μg/mL at the time point indicated.) | −ve (−ve and +ve indicate that the value is below and above respectively, the no significant effect threshold, defined as 30% inhibition at 1 μg/mL at the time point indicated.) | > 16000
6 | Cc1ccc(-n2nc(C(C)(C)C)cc2NC(=O)Nc2ccc(Oc3cc(Nc4ccc5[nH]ncc5c4)ncn3)c3ccccc23)cc1 [Example 23, 1-(4-((6-((1H-indazol-5-yl)amino)pyrimidin-4-yl)oxy)naphthalen-1-yl)-3-(3-(tert-butyl)-1-(p-tolyl)-1H-pyrazol-5-yl)urea] | 2.7 | 4.3 | 30 | 57 | 16 | −ve (−ve and +ve indicate that the value is below and above respectively, the no significant effect threshold, defined as 30% inhibition at 1 μg/mL at the time point indicated.) | −ve (−ve and +ve indicate that the value is below and above respectively, the no significant effect threshold, defined as 30% inhibition at 1 μg/mL at the time point indicated.) | 12500
7 | Cc1ccc(-n2nc(C(C)(C)C)cc2NC(=O)Nc2ccc(Oc3ccnc(Nc4ccc5cn[nH]c5c4)n3)c3ccccc23)cc1 [Example 24, 1-(4-((2-((1H-indazol-6-yl)amino)pyrimidin-4-yl)oxy)naphthalen-1-yl)-3-(3-(tert-butyl)-1-(p-tolyl)-1H-pyrazol-5-yl)urea] | 16.9 | 2.4 | 245 | 1090 | 102 | −ve (−ve and +ve indicate that the value is below and above respectively, the no significant effect threshold, defined as 30% inhibition at 1 μg/mL at the time point indicated.) | −ve (−ve and +ve indicate that the value is below and above respectively, the no significant effect threshold, defined as 30% inhibition at 1 μg/mL at the time point indicated.) | 2180
8 | Cc1ccc(-n2nc(C(C)(C)C)cc2NC(=O)Nc2ccc(Oc3ccnc(Nc4ccc5[nH]cnc5c4)n3)c3ccccc23)cc1 [Example 30, 1-(4-((2-((1H-benzo[d]imidazol-5-yl)amino)pyrimidin-4-yl)oxy)naphthalen-1-yl)-3-(3-(tert-butyl)-1-(p-tolyl)-1H-pyrazol-5-yl)urea] | 7.7 | 4.7 | 89 | > 1600 | 17 | −ve (−ve and +ve indicate that the value is below and above respectively, the no significant effect threshold, defined as 30% inhibition at 1 μg/mL at the time point indicated.) | −ve (−ve and +ve indicate that the value is below and above respectively, the no significant effect threshold, defined as 30% inhibition at 1 μg/mL at the time point indicated.) | 301
